The source of these data is patent US8981094B2, “Piperidine/piperazine derivatives” (Janssen Pharmaceutica N.V., priority 2007, dated 2015).

The assay addresses T1, human DGAT1 (Homo sapiens, UniProt O75907).
T1 construct: FLAG (N); made in house; host or cells: SF9 insect cells (pFastBac baculovirus); total cell membranes
T1 sequence (O75907 1-488): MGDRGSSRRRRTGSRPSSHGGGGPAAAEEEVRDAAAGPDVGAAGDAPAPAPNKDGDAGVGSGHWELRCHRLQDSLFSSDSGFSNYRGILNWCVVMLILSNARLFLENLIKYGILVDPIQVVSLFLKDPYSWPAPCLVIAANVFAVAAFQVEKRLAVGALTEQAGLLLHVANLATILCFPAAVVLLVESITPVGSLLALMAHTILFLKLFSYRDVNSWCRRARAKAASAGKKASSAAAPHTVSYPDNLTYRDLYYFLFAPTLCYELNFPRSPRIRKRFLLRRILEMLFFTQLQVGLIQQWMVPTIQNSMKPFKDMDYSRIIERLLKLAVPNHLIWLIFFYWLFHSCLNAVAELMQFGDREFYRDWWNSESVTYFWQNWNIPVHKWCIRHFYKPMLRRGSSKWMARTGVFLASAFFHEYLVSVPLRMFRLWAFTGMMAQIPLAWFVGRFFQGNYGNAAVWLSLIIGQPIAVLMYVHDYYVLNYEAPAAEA
Nature of the assay: Inhibition of DGAT1 activity, FlashPlate assay with DGAT1 membrane preparations and substrate micelles. The format is biochemical. The settings on record: pIC50 = -logIC50, IC50 values expressed in M. From the text: A) Measurement of Inhibition of DGAT1 Activity by the Present Compounds
The inhibiting activity of the present compounds on DGAT1 activity was screened in a single well procedure assay using DGAT1 comprising membrane preparations and DGAT1 substrate comprising micelles and determining formed radio-active triacylglycerol coming in close proximity of a flashplate surface by radio luminescence.
Said assay is described in full detail in WO2006/067071, the content of which is incorporated herein by reference.
By DGAT1 activity is meant the transfer of coenzyme A activated fatty acids to the 3-position of 1,2-diacylglycerols, thus forming a triglyceride molecule, by enzyme DGAT1.
human DGAT1 (NM012079.2) was cloned into the pFastBac vector, containing translation start, a FLAG-tag at the N-terminus as described in literature and a viral Kozak sequence (AAX) preceding the ATG to improve expression in insect cells. Expression was done as described in literature (Cases, S., Smith, S. J., Zheng, Y., Myers H. M., Lear, S. R., Sande, E., Novak, S., Collins, C., Welch, C. B., Lusis, A. J., Erickson, S. K. and Farese, R. V. (1998) Proc. Natl. Acad. Sci. USA 95, 13018-13023.) using SF9 cells.
72 h transfected SF9 cells were collected by centrifugation (13000 rpm-15 min-4° C.) and lysed in 2×500 ml lysisbuffer (0.1M Sucrose, 50 mM KCl, 40 mM KH2PO4, 30 mM EDTA pH 7.2. Cells were homogenized by cell disruptor. After centrifugation 1380 rpm-15 min-4° C. (SN discarded), pellet was resuspended in 500 ml lysisbuffer and total cell membranes collected by ultracentrifugation at 34000 rpm(100 000 g) for 60 min (4° C.). The collected membranes were resuspended in lysis buffer, divided in aliquots and stored with 10% glycerol at −80° C. until use.
Add 1 ml dioleoyl-sn-glycerol (10 mg/ml) to 10 ml of L-α-phosphatidylcholine (1 mg/ml) and 10 ml of L-α-phosphatidyl-L-serine (1 mg/ml) in a thick glass recipient. Evaporate under nitrogen and put on ice for 15 minutes. Reconstitute in 10 ml Tris/HCl (10 mM, pH 7.4) by sonication on ice. The sonification process consists of sonification cycles of 10 seconds in the sonification bath followed by 10 seconds cool down on ice and repeating this sonification cycle till a homogeneous solution is obtained (takes about 15 minutes). The thus obtained micelles are stored at −20° C. till later use and contain DAG at a final concentration of 1.61 mM.
c) Substrate mix (for 1 384 well plate=3840 μl) • 612 μl micelles stock (51 μM final) • 16.6 μl oleoylCoA 9.7 mM • 23 μl [^3H]-oleoylCoA (49 Ci/mmol, 500 μCi/ml) • 3188.4 μl Tris pH 7.4, 10 mM
d) Enzyme mix (for 1 384 well plate=3520 μl) (5 μg/ml) • Add 11.73 μl of DGAT membrane stock (1500 μg/ml stock) to 3508 μl assay buffer.
e) Stop mix (for 1 384 well plate=7.68 ml) (250 mM) • Add 384 μl of N-ethylmaleimide (5M) to 3.456 ml DMSO 100%, and further dilute 3.84 ml of said solution with 3.84 ml DMSO 10%.
DGAT activity in membrane preparations was assayed in 50 mM Tris-HCl (pH 7.4), 150 mM MgCl2, 1 mM EDTA and 0.2% BSA, containing 50 μM DAG, 32 μg/ml PC/PS and 8.4 μM [^3H]-oleoylCoA (at a specific activity of 30 nCi/well) in a final volume of 50 μl in 384-well format using the red shifted Basic Image FlashPlate™ (Perkin Elmer Cat.No. SMP400).
In detail, 10 μl enzyme mix and 10 μl substrate mix were added to 30 μl of assay buffer, optionally in the presence of 1 μl DMSO (blank and controls) or 1 μl of the compound to be tested. This reaction mixture was incubated for 120 minutes at 37° C. and the enzymatic reaction stopped by adding 20 μl of the stop mix. The plates were sealed and the vesicles allowed to settle overnight at room temperature. Plates were centrifuged for 5 minutes at 1500 rpm and measured in Leadseeker. […]

On to `O=C(CN1CCOCC1)Nc1ccc(C2CCN(C(=O)Nc3c(Cl)cccc3Cl)CC2)cc1` [Compound 111], for which it took 1200 nM to reach half-maximal inhibition (IC50).

Consider `O=C(CN1CCCCC1)Nc1ccc(C2CCN(C(=O)Nc3c(Cl)cccc3Cl)CC2)cc1` [Compound 112], for which half-maximal inhibition (IC50) required 794 nM.

As for `CCCCCCCNCC(=O)Nc1ccc(C2CCN(C(=O)Nc3c(Cl)cccc3Cl)CC2)cc1` [Compound 115], the IC50 (commonly the concentration at which inhibition is half-maximal) is 204 nM.

On to `O=C(CNCC1CC1)Nc1ccc(C2CCN(C(=O)Nc3c(Cl)cccc3Cl)CC2)cc1` [Compound 116], for which the IC50 was 575 nM.

`O=C(CNCc1ccccc1)Nc1ccc(C2CCN(C(=O)Nc3c(Cl)cccc3Cl)CC2)cc1` [Compound 117]: the IC50 was 214 nM.

The compound `O=C(CNCc1ccc(F)cc1)Nc1ccc(C2CCN(C(=O)Nc3c(Cl)cccc3Cl)CC2)cc1` [Compound 118] had an IC50 of 347 nM.

Turning to `O=C(CNCc1ccco1)Nc1ccc(C2CCN(C(=O)Nc3c(Cl)cccc3Cl)CC2)cc1` [Compound 119], the IC50 is 389 nM.

Turning to `N#CCCNCC(=O)Nc1ccc(C2CCN(C(=O)Nc3c(Cl)cccc3Cl)CC2)cc1` [Compound 121], 3800 nM corresponded to half-maximal inhibition (IC50).

In turn, `CCCNCC(=O)Nc1ccc(C2CCN(C(=O)Nc3c(Cl)cccc3Cl)CC2)cc1` [Compound 122] had an IC50 of 562 nM.

`O=C(Cn1ccnc1)Nc1ccc(C2CCN(C(=O)Nc3c(Cl)cccc3Cl)CC2)cc1` [Compound 123] had an IC50 of 871 nM.

With `O=C(CC1CCCCC1)Nc1ccc(C2CCN(C(=O)Nc3c(Cl)cccc3Cl)CC2)cc1` [Compound 124], the half-maximal inhibitory concentration (IC50) was 166 nM.

For the compound `O=C(CCN1CCOCC1)Nc1ccc(C2CCN(C(=O)Nc3c(Cl)cccc3Cl)CC2)cc1` [Compound 125], the IC50 is 646 nM.

Compound `COC(=O)CCCC(=O)Nc1ccc(C2CCN(C(=O)Nc3c(Cl)cccc3Cl)CC2)cc1` [Compound 126] had an IC50 of 67.6 nM.

With `O=C(CCN1CCCCC1)Nc1ccc(C2CCN(C(=O)Nc3c(Cl)cccc3Cl)CC2)cc1` [Compound 128], the midpoint of inhibition, the IC50, lay at 2090 nM.

With `C#CCCC(=O)Nc1ccc(C2CCN(C(=O)Nc3c(Cl)cccc3Cl)CC2)cc1` [Compound 129], the IC50 is 245 nM.

`CCCCC(=O)Nc1ccc(C2CCN(C(=O)Nc3c(Cl)cccc3Cl)CC2)cc1` [Compound 130] gave an IC50 of 38 nM.

`O=C(CCc1ccccc1)Nc1ccc(C2CCN(C(=O)Nc3c(Cl)cccc3Cl)CC2)cc1` [Compound 131]: the IC50 was 25.7 nM.

`O=C(Cc1ccsc1)Nc1ccc(C2CCN(C(=O)Nc3c(Cl)cccc3Cl)CC2)cc1` [Compound 132] showed an IC50 of 44.7 nM.

Take `O=C(CCc1ccco1)Nc1ccc(C2CCN(C(=O)Nc3c(Cl)cccc3Cl)CC2)cc1` [Compound 133]: the IC50 was 38 nM.

Regarding `COc1ccc(CC(=O)Nc2ccc(C3CCN(C(=O)Nc4c(Cl)cccc4Cl)CC3)cc2)cc1` [Compound 134], the IC50 is 15.5 nM.

For the compound `O=C(CCN1CCOCC1)Nc1ccc(N2CCN(C(=O)Nc3c(Cl)cccc3Cl)CC2)cc1` [Compound 136], the midpoint of inhibition, the IC50, lay at 389 nM.

As to `CN(C)C(=O)CCC(=O)Nc1ccc(N2CCN(C(=O)Nc3c(Cl)cccc3Cl)CC2)cc1` [Compound 137], half-maximal inhibition (IC50) required 3390 nM.

In the case of `C#CCCC(=O)Nc1ccc(N2CCN(C(=O)Nc3c(Cl)cccc3Cl)CC2)cc1` [Compound 139], the midpoint of inhibition, the IC50, lay at 120 nM.

For the compound `CCCCC(=O)Nc1ccc(N2CCN(C(=O)Nc3c(Cl)cccc3Cl)CC2)cc1` [Compound 140], 19.1 nM corresponded to half-maximal inhibition (IC50).

The compound `O=C(Cc1ccsc1)Nc1ccc(N2CCN(C(=O)Nc3c(Cl)cccc3Cl)CC2)cc1` [Compound 142] showed an IC50 of 13.8 nM.

In turn, `O=C(CCc1ccco1)Nc1ccc(N2CCN(C(=O)Nc3c(Cl)cccc3Cl)CC2)cc1` [Compound 143] gave an IC50 of 18.2 nM.

On to `COc1ccc(CC(=O)Nc2ccc(N3CCN(C(=O)Nc4c(Cl)cccc4Cl)CC3)cc2)cc1` [Compound 144], for which the concentration for half-maximal inhibition (IC50) is 5.75 nM.

As for `COC(=O)CCCC(=O)Nc1ccc(N2CCN(C(=O)Nc3c(Cl)cccc3Cl)CC2)cc1` [Compound 145], 55 nM corresponded to half-maximal inhibition (IC50).
